In data set [1] the target is T1, N-type Ca2+ channels in IMR-32 cells (Homo sapiens, UniProt Q00975).
T1 construct: host or cells: IMR-32 cells, differentiated with dibutyryl cAMP and bromodeoxyuridine
Put plainly: Inhibition of N-type calcium flux in IMR-32 cells (Indo-1 fluorescence, nitrendipine present). The format is cell-based. The conditions noted are these: for inhibition at 1 µM / inhibition at 10 µM: IMR-32; for IC50: IMR-32 cells, 5 μM nitrendipine, K+ depolarization. In a few lines: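 With L-type flux blocked by 5 μM nitrendipine, N-type Ca2+ entry was read as the Indo-1 emission ratio (400/490 nm, excitation 350 nm) at 30° C after KCl depolarization.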
A general note: Calcium assays in cells follow changes in intracellular calcium, usually with a dye or a luminescent sensor.

For data set [2], the system named is L-type Ca2+ channels in GH3 cells. In words: Inhibition of L-type calcium flux in GH3 cells (Indo-1 fluorescence). The format is cell-based, rat. The protocol:
Measurement of L-type Ca^2+ Channel Blocking Potencies of Compounds in GH3 Cells Using the Fluorescent Ca^2+ Indicator Indo-1
The GH3 rat pituitary cell line was obtained from the American Type Culture Collection (Rockville, Md.). Cells were grown in Ham's F-10 medium with 15% horse serum, 2.5% fetal bovine serum (FBS), and […] (Gibco, Gaithersburg, Md.). Confluent cells were detached using 0.5 mM EDTA and loaded with 5 μM Indo-acetoxymethyl ester (Molecular Probes, Eugene, Oreg.) in 1% bovine serum albumin (BSA) containing assay buffer (10 mM HEPES/Tris pH 7.4 in Hank's Balanced Salt Solution without bicarbonate or phenol red) for 60 minutes at 30° C. Loaded cells were washed twice, resuspended (approx. 10^7 cells/mL) in assay buffer containing 0.5% BSA, and kept on ice until use (<3 hrs). Different concentrations of the test compounds (60 μL in dimethyl sulfoxide) or controls were added to 5.94 mL of assay buffer containing approximately 3×10^6 loaded cells, and the samples were incubated for 10 minutes at 30° C. After incubation, samples were aliquoted into 3 cuvettes, and their fluorescence was measured with a Photon Technology International (PTI, South Brunswick, N.J.) Model RF-F3004 spectrofluorometer thermostatted at 30° C. Excitation was set at 350 nm and dual emissions were recorded at 400 and 490 nm. Basal emission signals were acquired for 20 seconds, followed by the depolarization of cells by the addition of 200 μL of a stimulation solution (1 M KCl, 68 mM CaCl2) to the stirred cuvette. Emission signals were acquired for an additional 50 seconds after depolarization. Ratio of emission signals (F400 nm/F490 nm), which is proportional to intracellular Ca^2+ concentration, was plotted against time, and the difference between the emission ratio 50 seconds after stimulation and its basal value (before stimulation) was determined. Values obtained in this way were considered as measures of depolarization-induced Ca-flux through L-type channels and plotted as a function of drug concentration. IC50 values of test compounds were calculated by fitting a four-parameter logistic function to the data using the least squares method.

Data set [3] deals with T2, N-type Ca2+ channels in superior cervical ganglion (SCG) neurons (Rattus norvegicus, UniProt Q02294).
T2 construct: from tissue
In words: Whole-cell voltage clamp, N-type Ca2+ current in SCG neurons. The format is cell-based. The procedure, abridged:
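Whole-cell voltage clamp of acutely trypsin-dissociated rat SCG neurons, with TEA/choline external solution (2 mM Ca2+) and Cs-methanesulfonate pipette solution. Currents evoked by 150 ms steps to +20 mV from −65 to −55 mV holding, every 40 s; compounds applied locally, effect as % inhibition of control amplitude.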

Data set [4] has as its system K+ channels in superior cervical ganglion (SCG) neurons. In words: Whole-cell voltage clamp, K+ current in SCG neurons. In kind it is cell-based, rat. The conditions noted are these: 10 μM. In a few lines: (§1)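 Percent inhibition of control amplitude at steady-state block is the read-out: peak inward Na+ current at 0 mV, sustained K+ current at +50 mV, 35 msec steps every 10 sec from −65 to −55 mV. Recordings used whole-cell clamp of trypsin-dissociated SCG neurons, pH 7.4 external and pipette solutions, compounds applied by local perfusion.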

In data set [5] the test system is Na+ channels in superior cervical ganglion (SCG) neurons. In words: Whole-cell voltage clamp, Na+ current in SCG neurons. In kind it is cell-based, rat. The conditions noted are these: 10 μM. The procedure, abridged: as §1

5 compounds from US6423689B1, “Peptidyl calcium channel blockers” (Warner-Lambert Company, priority 1997, dated 2002) can be followed below.

T1 sequence (Q00975 whole entry): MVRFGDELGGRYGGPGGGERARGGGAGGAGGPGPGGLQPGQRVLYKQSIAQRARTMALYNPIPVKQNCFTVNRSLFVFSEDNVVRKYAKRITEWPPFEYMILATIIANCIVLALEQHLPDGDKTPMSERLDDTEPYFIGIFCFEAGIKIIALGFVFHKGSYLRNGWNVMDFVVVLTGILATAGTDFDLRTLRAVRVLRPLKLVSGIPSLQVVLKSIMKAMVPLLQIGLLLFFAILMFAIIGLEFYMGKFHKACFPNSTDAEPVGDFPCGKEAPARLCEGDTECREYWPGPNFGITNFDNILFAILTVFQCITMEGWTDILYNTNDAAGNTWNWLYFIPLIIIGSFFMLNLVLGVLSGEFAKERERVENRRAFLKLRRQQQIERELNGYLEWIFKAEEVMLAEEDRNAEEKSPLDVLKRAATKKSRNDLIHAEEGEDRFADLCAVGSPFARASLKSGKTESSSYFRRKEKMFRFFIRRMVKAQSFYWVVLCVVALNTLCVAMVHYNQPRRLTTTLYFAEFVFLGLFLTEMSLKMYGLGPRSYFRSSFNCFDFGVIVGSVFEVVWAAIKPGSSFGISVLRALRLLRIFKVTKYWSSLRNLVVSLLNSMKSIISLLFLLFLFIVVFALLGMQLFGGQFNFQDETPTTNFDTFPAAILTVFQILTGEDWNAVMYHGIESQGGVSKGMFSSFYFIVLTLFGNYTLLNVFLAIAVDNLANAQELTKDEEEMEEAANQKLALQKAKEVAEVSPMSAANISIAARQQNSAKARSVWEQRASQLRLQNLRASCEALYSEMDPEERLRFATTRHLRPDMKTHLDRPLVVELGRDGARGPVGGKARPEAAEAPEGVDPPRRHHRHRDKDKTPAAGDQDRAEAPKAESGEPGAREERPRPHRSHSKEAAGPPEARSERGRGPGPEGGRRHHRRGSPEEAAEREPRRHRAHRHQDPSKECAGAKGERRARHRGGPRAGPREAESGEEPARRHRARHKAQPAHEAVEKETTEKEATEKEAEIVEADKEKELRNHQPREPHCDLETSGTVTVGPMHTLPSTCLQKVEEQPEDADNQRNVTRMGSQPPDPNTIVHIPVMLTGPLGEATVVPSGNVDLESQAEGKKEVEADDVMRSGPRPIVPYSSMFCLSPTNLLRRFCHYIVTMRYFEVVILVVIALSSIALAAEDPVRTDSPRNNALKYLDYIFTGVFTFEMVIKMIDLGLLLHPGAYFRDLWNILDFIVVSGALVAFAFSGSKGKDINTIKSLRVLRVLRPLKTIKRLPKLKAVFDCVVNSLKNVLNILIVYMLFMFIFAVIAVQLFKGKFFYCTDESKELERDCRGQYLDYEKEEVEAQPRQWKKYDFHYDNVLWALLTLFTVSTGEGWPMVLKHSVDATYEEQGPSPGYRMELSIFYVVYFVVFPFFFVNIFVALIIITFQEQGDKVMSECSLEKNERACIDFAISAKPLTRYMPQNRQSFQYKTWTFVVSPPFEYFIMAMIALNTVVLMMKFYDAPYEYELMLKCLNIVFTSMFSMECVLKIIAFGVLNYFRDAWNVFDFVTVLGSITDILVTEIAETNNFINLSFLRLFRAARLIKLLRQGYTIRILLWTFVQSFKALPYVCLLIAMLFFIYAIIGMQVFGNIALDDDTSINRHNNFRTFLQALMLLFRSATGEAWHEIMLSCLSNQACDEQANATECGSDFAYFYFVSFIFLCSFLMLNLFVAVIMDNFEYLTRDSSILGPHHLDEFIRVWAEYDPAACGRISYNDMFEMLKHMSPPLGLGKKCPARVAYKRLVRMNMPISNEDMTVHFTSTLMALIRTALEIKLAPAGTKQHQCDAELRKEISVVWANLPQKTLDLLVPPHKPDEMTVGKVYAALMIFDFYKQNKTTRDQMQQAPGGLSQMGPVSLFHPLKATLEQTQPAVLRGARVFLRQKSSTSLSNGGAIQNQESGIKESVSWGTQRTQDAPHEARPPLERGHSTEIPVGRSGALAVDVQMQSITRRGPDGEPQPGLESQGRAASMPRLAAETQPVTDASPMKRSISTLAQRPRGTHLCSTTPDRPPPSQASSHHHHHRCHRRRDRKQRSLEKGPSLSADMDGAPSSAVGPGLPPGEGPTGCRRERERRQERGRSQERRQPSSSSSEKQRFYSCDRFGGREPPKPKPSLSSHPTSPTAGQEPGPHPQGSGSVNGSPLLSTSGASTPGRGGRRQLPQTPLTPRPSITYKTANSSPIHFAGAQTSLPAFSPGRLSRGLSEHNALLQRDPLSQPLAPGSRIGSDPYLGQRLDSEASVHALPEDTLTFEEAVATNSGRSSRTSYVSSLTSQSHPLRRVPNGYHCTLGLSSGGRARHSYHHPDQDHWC
T1 sequence (P54289 25-956 partner limits assumed): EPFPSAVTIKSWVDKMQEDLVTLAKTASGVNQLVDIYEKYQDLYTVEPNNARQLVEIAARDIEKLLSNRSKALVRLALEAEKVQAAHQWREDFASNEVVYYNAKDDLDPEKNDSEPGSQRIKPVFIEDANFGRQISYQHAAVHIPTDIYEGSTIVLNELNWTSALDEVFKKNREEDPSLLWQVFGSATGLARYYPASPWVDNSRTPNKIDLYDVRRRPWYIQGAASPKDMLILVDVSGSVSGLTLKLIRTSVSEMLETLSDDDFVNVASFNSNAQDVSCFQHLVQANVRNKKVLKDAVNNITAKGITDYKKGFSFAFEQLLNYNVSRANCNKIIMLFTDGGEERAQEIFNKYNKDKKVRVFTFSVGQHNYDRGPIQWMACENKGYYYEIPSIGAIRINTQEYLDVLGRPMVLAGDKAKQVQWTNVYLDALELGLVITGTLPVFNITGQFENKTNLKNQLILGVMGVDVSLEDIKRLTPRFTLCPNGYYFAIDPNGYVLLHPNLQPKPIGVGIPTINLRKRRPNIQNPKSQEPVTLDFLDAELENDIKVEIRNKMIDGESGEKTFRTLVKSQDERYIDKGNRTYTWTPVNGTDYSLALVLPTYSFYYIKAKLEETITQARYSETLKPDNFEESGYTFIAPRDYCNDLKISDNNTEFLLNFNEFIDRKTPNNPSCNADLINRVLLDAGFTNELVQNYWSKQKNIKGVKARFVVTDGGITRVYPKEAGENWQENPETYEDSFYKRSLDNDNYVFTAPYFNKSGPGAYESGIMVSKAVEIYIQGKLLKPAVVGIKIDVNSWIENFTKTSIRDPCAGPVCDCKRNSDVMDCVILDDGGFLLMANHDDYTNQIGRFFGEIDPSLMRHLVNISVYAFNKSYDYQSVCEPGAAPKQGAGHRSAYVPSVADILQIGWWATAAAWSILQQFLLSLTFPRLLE
T1 sequence (P54289 957-1103 partner limits assumed): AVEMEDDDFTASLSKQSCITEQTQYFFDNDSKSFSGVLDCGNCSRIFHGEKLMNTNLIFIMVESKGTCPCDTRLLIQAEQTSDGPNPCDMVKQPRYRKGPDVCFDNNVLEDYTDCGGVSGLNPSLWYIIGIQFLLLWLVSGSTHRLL
T1 sequence (P54284 whole entry partner): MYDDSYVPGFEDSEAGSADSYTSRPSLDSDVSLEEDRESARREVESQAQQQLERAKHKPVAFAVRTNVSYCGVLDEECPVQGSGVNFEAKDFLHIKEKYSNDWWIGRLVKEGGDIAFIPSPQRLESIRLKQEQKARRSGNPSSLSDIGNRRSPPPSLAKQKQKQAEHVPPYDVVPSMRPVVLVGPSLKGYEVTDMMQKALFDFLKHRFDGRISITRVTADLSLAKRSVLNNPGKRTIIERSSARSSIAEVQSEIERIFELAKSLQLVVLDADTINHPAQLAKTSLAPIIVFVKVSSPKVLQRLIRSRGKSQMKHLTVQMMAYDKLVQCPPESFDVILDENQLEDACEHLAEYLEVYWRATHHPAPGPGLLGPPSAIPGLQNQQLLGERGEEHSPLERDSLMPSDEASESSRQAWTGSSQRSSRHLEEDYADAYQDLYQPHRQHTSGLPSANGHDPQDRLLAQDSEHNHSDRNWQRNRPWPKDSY

For `CC(C)(C)OC(=O)[C@@H](Cc1ccc(OCc2ccccc2)cc1)NC(=O)[C@H](Cc1c[nH]c2ccccc12)NC(=O)N1CCCCCC1` [Example 17, 2(R)-[2(S)-[(Azepane-1-carbonyl)-amino]-3-(1H-indol-3-yl)-propionylamino]-3-(4-benzyloxy-phenyl)-propionic acid tert-butyl ester], in data set [1], the inhibition (in general, the drop in the measured response relative to a control, in per cent) at 1 µM turned out to be 41%; the inhibition at 10 µM amounted to 85%; the IC50 – broadly, the concentration that inhibits the measured activity by half – was found to be 1.85 µM. Further, in data set [2], the IC50 amounted to 5.8 µM.

Consider `CC(C)(C)OC(=O)[C@@H](Cc1ccc(OCc2ccccc2)cc1)NC(=O)[C@H](Cc1ccccc1)NC(=O)N1CCCCCC1` [Example 18, 2(R)-{2(S)-[(Azepane-1-carbonyl)-amino]-3-phenyl-propionylamino}-3-(4-benzyloxy-phenyl)-propionic acid tert-butyl ester], for which, in data set [1], the inhibition at 1 µM came to 50%, the inhibition at 10 µM was 97% and the IC50 turned out to be 0.93 µM. Further, the IC50 in data set [2] turned out to be 3.5 µM.

As for `Cc1ccc(COc2ccc(C[C@H](NC(=O)[C@H](Cc3ccccc3)NC(=O)N3CCCCCC3)C(=O)OC(C)(C)C)cc2)cc1` [Example 19, [S-(R*,R*)]-2-{2-[(Azepane-1-carbonyl)-amino]-3-phenyl-propionylamino}-3-[4-(4-methyl-benzyloxy)-phenyl]-propionic acid tert-butyl ester], the melting point (as a rule, the temperature, or range, at which the solid turns liquid) is 87 to 90 °C. Also, in data set [1], the inhibition at 1 µM came out at 68%, the inhibition at 10 µM worked out at 91% and the IC50 came to 0.5 µM. Moreover, the IC50 in data set [2] amounted to 4.3 µM.

With `CC(C)(C)OC(=O)[C@H](Cc1ccc(OCc2ccccc2)cc1)NC(=O)[C@H](Cc1c[nH]c2ccccc12)NC(=O)N1CCCCCC1` [Example 20, [S-(R*,R*)]-2-[2-[(Azepane-1-carbonyl)-amino]-3-(1H-indol-3-yl)-propionylamino]-3-(4-benzyloxy-phenyl)-propionic acid tert-butyl ester], in data set [1], the inhibition at 1 µM came to 52%, the inhibition at 10 µM was 90% and the IC50 was found to be 0.91 µM. For the same compound, the IC50 in data set [2] turned out to be 4.6 µM.

Take `CC(C)C[C@H](NC(=O)N1CCCCCC1)C(=O)N[C@@H](Cc1ccc(OCc2ccccc2)cc1)C(=O)NC(C)(C)C` [Example 23, [S-(R*,R*)]-Azepane-1-carboxylic acid {1-[2-(4-benzyloxy-phenyl)-1-tert-butylcarbamoyl-ethylcarbamoyl]-3-methyl-butyl}-amide]: in data set [1], the inhibition at 1 µM is 55%. In addition, the results for the inhibition at 10 µM in data set [1] and in data set [3] (10 μM) were 95% and 78%, respectively. Besides, the IC50 stood at 0.58 µM in data set [1], 18 µM in data set [2] and 3.24 µM in data set [3] (read-out: Inhibition of N-type Ca2+ Current IC50). For the same compound, the “Inhibition of K+ Current, % Inhibition at 10 μM” value in data set [4] was determined as 61%. In data set [5], the “Inhibition of Na+ Current, % Inhibition at 10 μM” value is 30%.
